The results in this text go back to patent publication US9822103B2, “Inhibitors of lysine methyl transferase” (priority 2013, dated 2017).

Molecules are shown by their SMILES. pIC50: −log10 of the molar value.

recombinant EZH2-641F complex (EZH2 Y641F/EED/SUZ12/RbAp48/AEBP2), sequence (Q15910 whole entry Y641F): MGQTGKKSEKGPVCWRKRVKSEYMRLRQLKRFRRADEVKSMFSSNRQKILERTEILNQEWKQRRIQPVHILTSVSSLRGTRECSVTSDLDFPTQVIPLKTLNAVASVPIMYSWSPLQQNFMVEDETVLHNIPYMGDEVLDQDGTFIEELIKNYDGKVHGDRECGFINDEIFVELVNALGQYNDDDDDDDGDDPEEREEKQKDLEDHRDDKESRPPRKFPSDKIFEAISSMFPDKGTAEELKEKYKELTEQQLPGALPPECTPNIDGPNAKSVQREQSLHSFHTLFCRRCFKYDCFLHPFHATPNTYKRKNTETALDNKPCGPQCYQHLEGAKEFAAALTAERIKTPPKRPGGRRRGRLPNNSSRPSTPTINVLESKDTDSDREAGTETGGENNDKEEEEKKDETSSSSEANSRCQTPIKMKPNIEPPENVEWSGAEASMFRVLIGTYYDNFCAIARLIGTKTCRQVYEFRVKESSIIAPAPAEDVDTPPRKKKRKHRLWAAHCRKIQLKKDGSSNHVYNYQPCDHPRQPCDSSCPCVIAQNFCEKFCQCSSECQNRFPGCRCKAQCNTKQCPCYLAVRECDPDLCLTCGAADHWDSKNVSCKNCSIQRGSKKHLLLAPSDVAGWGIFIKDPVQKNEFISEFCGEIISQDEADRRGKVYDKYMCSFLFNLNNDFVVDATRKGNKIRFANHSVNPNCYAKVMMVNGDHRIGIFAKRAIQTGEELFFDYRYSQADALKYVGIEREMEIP
recombinant EZH2-641F complex (EZH2 Y641F/EED/SUZ12/RbAp48/AEBP2), sequence (O75530 whole entry partner): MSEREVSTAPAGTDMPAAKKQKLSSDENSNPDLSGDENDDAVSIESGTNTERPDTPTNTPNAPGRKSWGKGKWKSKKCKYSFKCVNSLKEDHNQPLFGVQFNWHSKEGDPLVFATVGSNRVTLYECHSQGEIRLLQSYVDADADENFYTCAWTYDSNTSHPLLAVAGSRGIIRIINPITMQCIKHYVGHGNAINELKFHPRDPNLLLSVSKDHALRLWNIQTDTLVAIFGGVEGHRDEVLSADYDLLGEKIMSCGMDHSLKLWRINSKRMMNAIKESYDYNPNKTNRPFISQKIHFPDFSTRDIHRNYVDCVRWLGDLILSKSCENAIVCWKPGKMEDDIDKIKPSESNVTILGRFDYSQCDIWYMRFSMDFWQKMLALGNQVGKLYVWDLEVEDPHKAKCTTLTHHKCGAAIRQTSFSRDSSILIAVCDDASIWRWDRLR
recombinant EZH2-641F complex (EZH2 Y641F/EED/SUZ12/RbAp48/AEBP2), sequence (Q15022 whole entry partner): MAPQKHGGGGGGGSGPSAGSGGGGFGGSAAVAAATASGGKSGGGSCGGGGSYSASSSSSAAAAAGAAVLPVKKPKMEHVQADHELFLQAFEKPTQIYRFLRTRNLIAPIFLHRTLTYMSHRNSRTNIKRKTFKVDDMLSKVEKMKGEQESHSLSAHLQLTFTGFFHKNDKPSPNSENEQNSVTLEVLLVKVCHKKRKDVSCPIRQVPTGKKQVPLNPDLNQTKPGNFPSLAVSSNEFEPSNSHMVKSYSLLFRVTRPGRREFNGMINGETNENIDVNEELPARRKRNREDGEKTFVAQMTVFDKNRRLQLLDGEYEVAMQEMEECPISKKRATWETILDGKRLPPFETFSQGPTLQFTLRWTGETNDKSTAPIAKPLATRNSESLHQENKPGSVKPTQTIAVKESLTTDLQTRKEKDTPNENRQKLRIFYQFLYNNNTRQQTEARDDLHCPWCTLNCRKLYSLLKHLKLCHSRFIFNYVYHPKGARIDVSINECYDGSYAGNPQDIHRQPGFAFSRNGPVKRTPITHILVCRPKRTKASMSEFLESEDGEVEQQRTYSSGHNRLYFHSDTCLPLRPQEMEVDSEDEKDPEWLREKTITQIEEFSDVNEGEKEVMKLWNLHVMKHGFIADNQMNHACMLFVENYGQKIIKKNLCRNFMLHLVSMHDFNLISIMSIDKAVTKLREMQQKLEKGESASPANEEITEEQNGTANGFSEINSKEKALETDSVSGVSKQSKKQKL
recombinant EZH2-641F complex (EZH2 Y641F/EED/SUZ12/RbAp48/AEBP2), sequence (Q09028 whole entry partner): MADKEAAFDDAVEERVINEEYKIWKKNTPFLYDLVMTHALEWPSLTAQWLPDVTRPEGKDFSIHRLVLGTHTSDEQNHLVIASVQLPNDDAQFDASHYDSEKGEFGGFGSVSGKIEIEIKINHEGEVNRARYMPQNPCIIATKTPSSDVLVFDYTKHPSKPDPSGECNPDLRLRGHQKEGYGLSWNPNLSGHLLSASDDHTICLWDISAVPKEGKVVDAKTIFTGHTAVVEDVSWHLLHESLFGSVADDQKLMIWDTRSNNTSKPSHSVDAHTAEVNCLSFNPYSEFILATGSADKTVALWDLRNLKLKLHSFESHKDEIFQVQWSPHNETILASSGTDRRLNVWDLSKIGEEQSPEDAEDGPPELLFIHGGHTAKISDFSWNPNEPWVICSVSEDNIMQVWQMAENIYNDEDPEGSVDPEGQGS
recombinant EZH2-641F complex (EZH2 Y641F/EED/SUZ12/RbAp48/AEBP2), sequence (Q6ZN18 whole entry partner): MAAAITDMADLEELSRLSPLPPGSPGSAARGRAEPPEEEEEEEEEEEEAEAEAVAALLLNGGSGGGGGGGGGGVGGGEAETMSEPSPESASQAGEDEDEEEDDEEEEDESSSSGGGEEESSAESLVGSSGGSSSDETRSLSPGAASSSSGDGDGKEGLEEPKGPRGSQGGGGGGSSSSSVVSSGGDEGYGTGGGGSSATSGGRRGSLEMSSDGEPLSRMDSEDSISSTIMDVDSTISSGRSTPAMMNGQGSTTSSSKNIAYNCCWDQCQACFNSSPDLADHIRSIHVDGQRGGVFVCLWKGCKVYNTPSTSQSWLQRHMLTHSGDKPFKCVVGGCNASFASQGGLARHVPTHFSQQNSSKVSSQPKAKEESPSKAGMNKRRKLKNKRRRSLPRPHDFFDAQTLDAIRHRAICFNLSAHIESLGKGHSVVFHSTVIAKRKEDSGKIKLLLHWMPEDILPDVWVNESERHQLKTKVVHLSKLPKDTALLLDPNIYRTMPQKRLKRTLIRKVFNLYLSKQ

The assay has as its target recombinant EZH2-641F complex (EZH2 Y641F/EED/SUZ12/RbAp48/AEBP2) (Homo sapiens (Human), UniProt Q15910, Y641F). The assay can be described thus: EZH2 Histone Methyl Transferase Assay (scintillation proximity assay). The format is biochemical. The following applies: 350 nM histone peptide substrate, 500 nM 3H-SAM, 3 hours room temperature. On the procedure: EZH2 Histone Methyl Transferase Assay
The effectiveness of compounds of the present invention as inhibitors of histone methyl transferases can be readily tested by assays known to those skilled in the art. For example, in vitro histone methyl transferase assays may be conducted with a relevant purified histone methyl transferase and an appropriate synthetic substrate to determine the inhibitory activity of the compounds. Assays for inhibition of EZH2 by the instant compounds were performed in 384-well plates with reaction mixtures containing 350 nM of histone peptide substrate (ATKAAR-K(Me2)-SAPATGGVKKPHRYRPG-GK(Biotin), 500 nM S-[methyl-^3H]adenosyl-L-methionine (55-85 Ci/mmol), 50 mM Tris-HCl (pH 9.0), 50 mM NaCl, 1 mM dithiothreitol, Tween-20 at 0.01% and fatty-acid free bovine serum albumin at 0.01%, and recombinant EZH2-641F complex (EZH2 Y641F/EED/SUZ12/RbAp48/AEBP2) at 5 nM (>98% purity, BPS Bioscience) or 15 nM (50% purity, in-house). Reaction mixtures were incubated at room temperature for 3 hours, and the reactions were terminated by 0.005% poly-L-lysine solution in 20 mM Tris-HCl (pH 7.5) and 150 mM NaCl. Reaction products were captured by binding to strepavidin-conjugated imaging beads. Incorporation of radioactive methyl group into the histone peptide substrate was determined in Leadseeker (GE Healthcare) by means of scintillation proximity assay. Dose response curves were generated to determine the concentration required to inhibit 50% of methyl transferase activity (EC50). Compounds were dissolved at 10 mM in dimethylsulfoxide (DMSO) and evaluated at eleven concentrations. EC50 values were derived by non-linear regression analysis.
For orientation: pIC50 means the IC50 on a negative log10 scale, so that one unit is a factor of ten. Regarding `Cc1cc(C)c(CNC(=O)c2cc3c(c(-c4ccc(N5CCNCC5)cc4)c2)OC(C)(C)C3)c(=O)[nH]1` [Example 18, N-((4,6-Dimethyl-2-oxo-1,2-dihydropyridin-3-yl)methyl)-2,2-dimethyl-7-(4-(piperazin-1-yl)phenyl)-2,3-dihydrobenzofuran-5-carboxamide], the pIC50 was greater than 6.30.
Under `Cc1cc(C)c(CNC(=O)c2cc(Br)c3c(c2)[C@@H](C)[C@H](C)O3)c(=O)[nH]1` (racemic) [Example 40, rac-(2S,3R)-7-bromo-N-((4,6-dimethyl-2-oxo-1,2-dihydropyridin-3-yl)methyl)-2,3-dimethyl-2,3-dihydrobenzofuran-5-carboxamide] stands less than 6.00; under `Cc1cc(C)c(CNC(=O)c2cc3c(c(-c4ccc(N5CCOCC5)nc4)c2)OC(C)(C)C3)c(=O)[nH]1` [Example 12, N-((4,6-Dimethyl-2-oxo-1,2-dihydropyridin-3-yl)methyl)-2,2-dimethyl-7-(6-morpholinopyridin-3-yl)-2,3-dihydrobenzofuran-5-carboxamide], greater than 6.30.
As for `Cc1cc(C)c(CNC(=O)c2cc(Cl)c3c(c2)CC(C)(C)O3)c(=O)[nH]1` [Example 3, 7-Chloro-N-((4,6-dimethyl-2-oxo-1,2-dihydropyridin-3-yl)methyl)-2,2-dimethyl-2,3-dihydrobenzofuran-5-carboxamide], the figure is less than 6.00.
Under `Cc1cc(C)c(CNC(=O)c2cc3c(c(-c4ccc(N5CCNCC5)nc4)c2)OCC(C)CC3)c(=O)[nH]1` (centres unmarked) [Example 55, N-((4,6-Dimethyl-2-oxo-1,2-dihydropyridin-3-yl)methyl)-3-methyl-9-(6-(piperazin-1-yl)pyridin-3-yl)-2,3,4,5-tetrahydrobenzo[b]oxepine-7-carboxamide] stands less than 6.00; under `COc1ccc(-c2cc(C(=O)NCc3c(C)cc(C)[nH]c3=O)cc3c2O[C@@]2(C)CCC[C@@H]32)cn1` (racemic) [Example 66, rac-(3aS,8bS)—N-((4,6-Dimethyl-2-oxo-1,2-dihydropyridin-3-yl)methyl)-5-(6-methoxypyridin-3-yl)-3a-methyl-2,3,3a,8b-tetrahydro-1H-cyclopenta[b]benzofuran-7-carboxamide], 6.00 to 6.30.
As to `COc1ccc(-c2cc(C(=O)NCc3c(C)cc(C)[nH]c3=O)cc3c2OCC(C)CC3)cn1` (centres unmarked) [Example 54, N-((4,6-dimethyl-2-oxo-1,2-dihydropyridin-3-yl)methyl)-9-(6-methoxypyridin-3-yl)-3-methyl-2,3,4,5-tetrahydrobenzo[b]oxepine-7-carboxamide], the negative logarithm of the IC50 (pIC50) was less than 6.00.
As to `CC1=CCOc2c(Br)cc(C(=O)NCc3c(C)cc(C)[nH]c3=O)cc2C1` [Example 44, 9-Bromo-N-((4,6-dimethyl-2-oxo-1,2-dihydropyridin-3-yl)methyl)-4-methyl-2,5-dihydrobenzo[b]oxepine-7-carboxamide], the pIC50 was less than 6.00.
As for `Cc1cc(C)c(CNC(=O)c2cc3c(c(-c4ccc(N5CCNCC5)nc4)c2)OC(C)CCC3)c(=O)[nH]1` (centres unmarked) [Example 51, N-((4,6-Dimethyl-2-oxo-1,2-dihydropyridin-3-yl)methyl)-2-methyl-9-(6-(piperazin-1-yl)pyridin-3-yl)-2,3,4,5-tetrahydrobenzo[b]oxepine-7-carboxamide], the figure is less than 6.00.
As for `Cc1cc(C)c(CNC(=O)c2ccc3c(c2)C=CCC(C)O3)c(=O)[nH]1` (centres unmarked) [Example 47, N-((4,6-Dimethyl-2-oxo-1,2-dihydropyridin-3-yl)methyl)-2-methyl-2,3-dihydrobenzo[b]oxepine-7-carboxamide], the figure is less than 6.00; as for `Cc1cc(C)c(CNC(=O)c2cc3c(c(-c4ccc(N5CCOCC5)nc4)c2)OC(C)C3)c(=O)[nH]1` (centres unmarked) [Example 33, N-((4,6-Dimethyl-2-oxo-1,2-dihydropyridin-3-yl)methyl)-2-methyl-7-(6-morpholinopyridin-3-yl)-2,3-dihydrobenzofuran-5-carboxamide], less than 6.00.
Under `COc1ccc(-c2cc(C(=O)NCc3c(C)cc(C)[nH]c3=O)cc3c2OC(C)(C)C3)cn1` [Example 14, N-((4,6-Dimethyl-2-oxo-1,2-dihydropyridin-3-yl)methyl)-7-(6-methoxypyridin-3-yl)-2,2-dimethyl-2,3-dihydrobenzofuran-5-carboxamide] stands 6.00 to 6.30.
As for `Cc1cc(C)c(CNC(=O)c2cc3c(c(-c4cnc(N5CCNCC5)nc4)c2)OC(C)(C)C3)c(=O)[nH]1` [Example 20, N-((4,6-Dimethyl-2-oxo-1,2-dihydropyridin-3-yl)methyl)-2,2-dimethyl-7-(2-(piperazin-1-yl)pyrimidin-5-yl)-2,3-dihydrobenzofuran-5-carboxamide], the negative-log IC50 (pIC50) is greater than 6.30.
Under `COc1ccc(-c2cc(C(=O)NCc3c(C)cc(C)[nH]c3=O)cc3c2OCCC(C)C3)cn1` (centres unmarked) [Example 46, N-((4,6-Dimethyl-2-oxo-1,2-dihydropyridin-3-yl)methyl)-9-(6-methoxypyridin-3-yl)-4-methyl-2,3,4,5-tetrahydrobenzo[b]oxepine-7-carboxamide] stands less than 6.00.
Under `CCC1COc2cc(C(=O)NCc3c(C)cc(C)[nH]c3=O)cc(Br)c2O1` (centres unmarked) [Example 91, 8-Bromo-N-((4,6-dimethyl-2-oxo-1,2-dihydropyridin-3-yl)methyl)-2-ethyl-2,3-dihydrobenzo[b][1,4]dioxine-6-carboxamide] stands less than 6.00; under `Cc1cc(C)c(CNC(=O)c2cc3c(c(-c4ccc(N5CCNCC5)nc4)c2)OC(C)(C)C3)c(=O)[nH]1` [Example 11, N-((4,6-Dimethyl-2-oxo-1,2-dihydropyridin-3-yl)methyl)-2,2-dimethyl-7-(6-(piperazin-1-yl)pyridin-3-yl)-2,3-dihydrobenzofuran-5-carboxamide], greater than 6.30; under `Cc1cc(C)c(CNC(=O)c2cc(Br)c3c(c2)CCC(C)CO3)c(=O)[nH]1` (centres unmarked) [Example 53, 9-Bromo-N-((4,6-dimethyl-2-oxo-1,2-dihydropyridin-3-yl)methyl)-3-methyl-2,3,4,5-tetrahydrobenzo[b]oxepine-7-carboxamide], less than 6.00.
As for `CCC1(C)Cc2cc(C(=O)NCc3c(C)cc(C)[nH]c3=O)cc(-c3ccc(C)cc3)c2O1` (centres unmarked) [Example 63, N-((4,6-Dimethyl-2-oxo-1,2-dihydropyridin-3-yl)methyl)-2-ethyl-2-methyl-7-(p-tolyl)-2,3-dihydrobenzofuran-5-carboxamide], the figure is less than 6.00; as for `Cc1cc(C)c(CNC(=O)c2cc(-c3ccc(N4CCNCC4)nc3)c3c(c2C)CC(C)(C)O3)c(=O)[nH]1` [Example 26, N-((4,6-Dimethyl-2-oxo-1,2-dihydropyridin-3-yl)methyl)-2,2,4-trimethyl-7-(6-(piperazin-1-yl)pyridin-3-yl)-2,3-dihydrobenzofuran-5-carboxamide], greater than 6.30.
As for `Cc1cc(C)c(CNC(=O)c2cc(F)c3c(c2)CC(C)(C)O3)c(=O)[nH]1` [Example 4, N-((4,6-Dimethyl-2-oxo-1,2-dihydropyridin-3-yl)methyl)-7-fluoro-2,2-dimethyl-2,3-dihydrobenzofuran-5-carboxamide], the pIC50 is less than 6.00.
Under `Cc1cc(C)c(CNC(=O)c2cc(C)c3c(c2)CC(C)(C)O3)c(=O)[nH]1` [Example 6, N-((4,6-Dimethyl-2-oxo-1,2-dihydropyridin-3-yl)methyl)-2,2,7-trimethyl-2,3-dihydrobenzofuran-5-carboxamide] stands less than 6.00; under `Cc1cc(C)c(CNC(=O)c2cc(Br)c3c(c2)CC(C)(C)O3)c(=O)[nH]1` [Example 1, 7-Bromo-N-((4,6-dimethyl-2-oxo-1,2-dihydropyridin-3-yl)methyl)-2,2-dimethyl-2,3-dihydrobenzofuran-5-carboxamide], greater than 6.30; under `Cc1cc(C)c(CNC(=O)c2ccc3c(c2)CCC(C)(C)O3)c(=O)[nH]1` [Example 41, N-((4,6-Dimethyl-2-oxo-1,2-dihydropyridin-3-yl)methyl)-2,2-dimethylchroman-6-carboxamide], less than 6.00.
For `Cc1cc(C)c(CNC(=O)c2cc(-c3ccc(N4CCOCC4)nc3)c3c(c2)C(C)CO3)c(=O)[nH]1` (centres unmarked) [Example 27, N-((4,6-Dimethyl-2-oxo-1,2-dihydropyridin-3-yl)methyl)-3-methyl-7-(6-morpholinopyridin-3-yl)-2,3-dihydrobenzofuran-5-carboxamide], the pIC50 was less than 6.00.
Consider `Cc1cc(C)c(CNC(=O)c2cc(Br)c3c(c2C)CC(C)(C)O3)c(=O)[nH]1` [Example 7, 7-Bromo-N-((4,6-dimethyl-2-oxo-1,2-dihydropyridin-3-yl)methyl)-2,2,4-trimethyl-2,3-dihydrobenzofuran-5-carboxamide], for which the pIC50 was 6.00 to 6.30.
Consider `C=C(C)C1(C)Cc2cc(C(=O)NCc3c(C)cc(C)[nH]c3=O)cc(Br)c2O1` (centres unmarked) [Example 82, 7-Bromo-N-((4,6-dimethyl-2-oxo-1,2-dihydropyridin-3-yl)methyl)-2-methyl-2-(prop-1-en-2-yl)-2,3-dihydrobenzofuran-5-carboxamide], for which the negative-log IC50 (pIC50) was less than 6.00.
